From the supplement of paper PMC5752671
Structures can show the parent of a compound that is named as a salt.

Tests used:
Assay in all cases: area under dose-response curve (cell viability) (AUC (arbitrary, % viability x log concentration)); higher = less sensitive (more viable)
Settings in all cases: 4 days
[1] = system: PL-21
In short: (§1)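 Drugs were dispensed robotically, one day after plating, onto fourteen leukemia cell lines in 384-well plates coated with extracellular matrix. Each drug was tested in duplicate at eight concentrations spanning 4–5 logs inside 10^–12–10^–4 M, adjusted per drug, and CellTiter-Glo readout followed after 4 days. Duplicates were averaged and a four-parameter sigmoid was fitted. The area under that fitted curve is the reported value.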

[2] = system: MOLM/16
In short: as §1

[3] = system: NB4
In short: as §1

[4] = system: SKM1
In short: as §1

[5] = system: EOL-1
In short: as §1

[6] = system: U937
In short: as §1

[7] = system: KASUMI1
In short: as §1

[8] = system: MV4.11
In short: as §1

[9] = system: OCI-AML3
In short: as §1

[10] = system: KG1
In short: as §1

| SMILES | area under dose-response curve [1] | area under dose-response curve [2] | area under dose-response curve [3] | area under dose-response curve [4] | area under dose-response curve [5] | area under dose-response curve [6] | area under dose-response curve [7] | area under dose-response curve [8] | area under dose-response curve [9] | area under dose-response curve [10] |
| --- | --- | --- | --- | --- | --- | --- | --- | --- | --- | --- |
| O=c1c(N=Nc2ccc(S(=O)(=O)O)cc2)c(-c2ccc([N+](=O)[O-])cc2)[nH]n1-c1ccccc1 [PHPS1] | 611 | 618 | 655 | 646 | 690 | 630 | 683 | 676 | 622 | 690 |
| Oc1cccc(-c2nc(N3CCOCC3)c3oc4ncccc4c3n2)c1 [PI-103] | 305 | 285 | 545 | 463 | 422 | 412 | 409 | 482 | 442 | 525 |
| Cc1ccc([N+](=O)[O-])cc1S(=O)(=O)N(C)/N=C/c1cnc2ccc(Br)cn12 [PIK-75] | 366 | 328 | 413 | 402 | 335 | 371 | 373 | 314 | 398 | 390 |
| COc1ccc2c3n(c(=NC(=O)c4cccnc4)nc2c1OC)CCN3 [PIK-90] | 522 | 515 | 612 | 540 | 559 | 586 | 500 | 580 | 532 | 626 |
| CO[C@@H]1[C@H](N(C)C(=O)c2ccccc2)C[C@H]2O[C@]1(C)n1c3ccccc3c3c4c(c5c6ccccc6n2c5c31)C(=O)NC4 [PKC412] | 524 | 425 | 505 | 555 | 245 | 454 | 499 | 279 | 560 | 455 |
| CN(C)C1CCN(C(=O)c2ccc(NC(=O)Nc3ccc(-c4nc(N5CCOCC5)nc(N5CCOCC5)n4)cc3)cc2)CC1 [PKI-587] | 374 | 429 | 447 | 372 | 307 | 255 | 463 | 363 | 248 | 548 |
| CCCS(=O)(=O)Nc1ccc(F)c(C(=O)c2c[nH]c3ncc(-c4ccc(Cl)cc4)cc23)c1F [PLX-4032] | 638 | 661 | 618 | 661 | 677 | 692 | 750 | 702 | 751 | 710 |
| CCCS(=O)(=O)Nc1ccc(F)c(C(=O)c2c[nH]c3ncc(Cl)cc23)c1F [PLX-4720] | 616 | 606 | 630 | 597 | 614 | 638 | 723 | 714 | 763 | 713 |
| CC(=O)O[C@H]1C(=O)[C@@]2(C)[C@H]([C@H](OC(=O)c3ccccc3)[C@]3(O)C[C@H](OC(=O)[C@H](O)[C@@H](NC(=O)c4ccccc4)c4ccccc4)C(C)=C1C3(C)C)[C@]1(OC(C)=O)CO[C@@H]1C[C@@H]2O [Paclitaxel] | 5.02 | 18.5 | 1.43 | 99.8 | 2.53 | 6.61 | 88 | 8.21 | 133 | 154 |
| Cc1[nH]c2ccccc2c1CCNCc1ccc(/C=C/C(=O)NO)cc1 [Panobinostat] | 319 | 242 | 276 | 318 | 240 | 289 | 278 | 259 | 310 | 323 |
| Cc1ccc(Nc2nccc(N(C)c3ccc4c(C)n(C)nc4c3)n2)cc1S(N)(=O)=O [Pazopanib] | 562 | 644 | 635 | 642 | 517 | 581 | 623 | 559 | 615 | 619 |
| Nc1nc2[nH]cc(CCc3ccc(C(=O)N[C@@H](CCC(=O)O)C(=O)O)cc3)c2c(=O)[nH]1 [Pemetrexed] | 618 | 624 | 664 | 654 | 674 | 628 | 638 | 640 | 641 | 657 |
| OC[C@H]1O[C@@H](n2cnc3c2N=CNC[C@H]3O)C[C@@H]1O [Pentostatin] | 616 | 627 | 666 | 637 | 671 | 651 | 656 | 647 | 625 | 669 |
| CC[C@H](C)C(=O)O[C@H]1C[C@H](O)C=C2C=C[C@H](C)[C@H](CC[C@@H](O)C[C@@H](O)CC(=O)O)[C@H]21 [Pravastatin] | 638 | 619 | 615 | 647 | 691 | 668 | 660 | 699 | 657 | 657 |
| CC[C@H](CO)Nc1nc(NCc2ccccc2)c2ncn(C(C)C)c2n1 [R-roscovitine] | 623 | 608 | 605 | 644 | 707 | 658 | 652 | 697 | 644 | 711 |
| COc1cc(F)c(F)c(Nc2ccc(I)cc2F)c1NS(=O)(=O)C1(C[C@H](O)CO)CC1 [RDEA-119] | 410 | 432 | 443 | 338 | 464 | 560 | 406 | 489 | 317 | 486 |
| CO[C@H]1C[C@@H]2CC[C@@H](C)[C@@](O)(O2)C(=O)C(=O)N2CCCC[C@H]2C(=O)O[C@H]([C@H](C)C[C@@H]2CC[C@@H](O)[C@H](OC)C2)CC(=O)[C@H](C)/C=C(\C)[C@@H](O)[C@@H](OC)C(=O)[C@H](C)C[C@H](C)/C=C/C=C/C=C/1C [Rapamycin] | 419 | 380 | 561 | 434 | 280 | 296 | 487 | 367 | 556 | 405 |

| SMILES | area under dose-response curve [1] | area under dose-response curve [2] | area under dose-response curve [3] | area under dose-response curve [4] | area under dose-response curve [5] | area under dose-response curve [6] | area under dose-response curve [7] | area under dose-response curve [8] | area under dose-response curve [9] | area under dose-response curve [10] |
| --- | --- | --- | --- | --- | --- | --- | --- | --- | --- | --- |
| CN1CCC(CNc2ccc3ncc(-c4cccc(OC(F)(F)F)c4)n3n2)CC1 [SGI-1776] | 562 | 452 | 553 | 564 | 323 | 615 | 641 | 335 | 611 | 585 |
| COc1cc(Nc2c(C#N)cnc3cc(OCCCN4CCN(C)CC4)c(OC)cc23)c(Cl)cc1Cl [SKI-606] | 530 | 452 | 525 | 539 | 475 | 590 | 713 | 545 | 604 | 559 |
| CC(C)(C)c1cnc(CSc2cnc(NC(=O)C3CCNCC3)s2)o1 [SNS-032] | 396 | 474 | 438 | 430 | 419 | 469 | 560 | 444 | 476 | 619 |
| CNC(=O)c1cc(Oc2ccc(NC(=O)Nc3ccc(Cl)c(C(F)(F)F)c3)cc2)ccn1 [Sorafenib] | 586 | 537 | 603 | 644 | 214 | 588 | 576 | 250 | 674 | 651 |
| CN[C@@H]1C[C@H]2O[C@@](C)([C@@H]1OC)n1c3ccccc3c3c4c(c5c6ccccc6n2c5c31)C(=O)NC4 [Staurosporine] | 265 | 291 | 304 | 273 | 107 | 344 | 472 | 121 | 388 | 379 |
| CCN(CC)CCNC(=O)c1c(C)[nH]c(/C=C2\C(=O)Nc3ccc(F)cc32)c1C [Sunitinib] | 617 | 493 | 578 | 635 | 242 | 694 | 612 | 301 | 662 | 581 |
| Cc1cc(C(C)Nc2ccccc2)c2nc(N3CCOCC3)cc(=O)n2c1 (stereo not given) [TGX-221] | 630 | 590 | 619 | 638 | 588 | 645 | 669 | 633 | 650 | 694 |
| CN1CCN(c2ccc3nc(-c4c(N)c5c(F)cccc5[nH]c4=O)[nH]c3c2)CC1 [TKI258] | 588 | 472 | 592 | 544 | 293 | 588 | 602 | 313 | 659 | 456 |
| NC(=O)Nc1sc(-c2ccc(F)cc2)cc1C(N)=O [TPCA-1] | 585 | 481 | 643 | 638 | 492 | 598 | 617 | 609 | 656 | 547 |
| CC1(C)CCC(C)(C)c2cc(NC(=O)c3ccc(C(=O)O)cc3)ccc21 [Tamibarotene] | 542 | 558 | 509 | 412 | 293 | 524 | 646 | 328 | 297 | 660 |
| CC/C(=C(\c1ccccc1)c1ccc(OCCN(C)C)cc1)c1ccccc1 [Tamoxifen] | 582 | 598 | 588 | 636 | 631 | 613 | 631 | 629 | 601 | 634 |
| COc1cc2c(N3CCN(C(=O)Nc4ccc(OC(C)C)cc4)CC3)ncnc2cc1OCCCN1CCCCC1 [Tandutinib] | 623 | 629 | 588 | 653 | 264 | 672 | 646 | 319 | 684 | 705 |
| C=CCNC1=C2C[C@@H](C)C[C@H](OC)[C@H](O)[C@@H](C)/C=C(\C)[C@H](OC(N)=O)[C@@H](OC)/C=C\C=C(/C)C(=O)NC(=CC1=O)C2=O [Tanespimycin] | 475 | 278 | 346 | 404 | 440 | 480 | 554 | 280 | 484 | 578 |
| Cn1nnc2c(C(N)=O)ncn2c1=O [Temozolomide] | 611 | 622 | 638 | 674 | 600 | 668 | 662 | 670 | 686 | 656 |
| CO[C@H]1C[C@@H]2CC[C@@H](C)[C@@](O)(O2)C(=O)C(=O)N2CCCC[C@H]2C(=O)O[C@H]([C@H](C)C[C@@H]2CC[C@@H](OC(=O)C(C)(CO)CO)[C@H](OC)C2)CC(=O)[C@H](C)/C=C(\C)[C@@H](O)[C@@H](OC)C(=O)[C@H](C)C[C@H](C)/C=C/C=C/C=C/1C [Temsirolimus] | 435 | 399 | 588 | 436 | 281 | 302 | 512 | 385 | 557 | 455 |
| Cn1cncc1[C@@](N)(c1ccc(Cl)cc1)c1ccc2c(c1)c(-c1cccc(Cl)c1)cc(=O)n2C [Tipifarnib] | 441 | 208 | 215 | 425 | 255 | 313 | 419 | 378 | 392 | 374 |
| CC[C@@]1(O)C(=O)OCc2c1cc1n(c2=O)Cc2cc3c(CN(C)C)c(O)ccc3nc2-1 [Topotecan HCl] | 299 | 240 | 143 | 269 | 221 | 263 | 289 | 231 | 269 | 271 |
